Results reported in patent publication US20190307749A1, “Mitochondria-Division Inhibitor 1 Protects Against Amyloid-B Induced Mitochondrial Fragmentation and Synaptic Damage in Alzheimer's Disease” (Texas Tech University System, priority 2018, published 2019).
Marks after values point to notes of the source that are not given here.

What was measured:
[1] = test system: mouse neuroblastoma (N2a) cells; assay: Quantitative real-time RT-PCR: mRNA expression of mitochondrial dynamics, biogenesis and synaptic genes; format: cell-based; conditions: N2a cells
Experimental: (§1) Tissue culture: The N2a cells were grown for 3 days in a serum-free medium (1:1 mixture of DMEM and OptiMEM, plus penicillin and streptomycin [Invitrogen, Carlsbad, Calif., USA]) until the cells developed neuronal processes.
Quantitative real-time RT-PCR: Using the reagent TriZol (Invitrogen), total RNA was isolated from cell pellets from the 5 N2a cell groups (FIG. 1). Using primer express software (Applied Biosystems, Carlsbad, Calif., USA), the inventors designed the oligonucleotide primers for the housekeeping genes 3-actin, GAPDH, mitochondrial structural genes, fission genes (Drp1, Fis1), fusion genes (MFN1, MFN2, Opa1), biogenesis genes (PGC1c, Nrf1, Nrf2, TFAM), and synaptic genes (synaptophysin and PSD95) (see Table 1 for primer sequences and amplicon sizes). Using SYBR-Green chemistry-based quantitative real-time RT-PCR, mRNA expressions of the above-mentioned genes were measured, as described by Manczak and Reddy.
The mRNA transcript level was normalized against β-actin and the GAPDH at each dilution. The standard curve was the normalized mRNA transcript level, plotted against the log-value of the input cDNA concentration at each dilution. To compare β-actin, GAPDH, and relative quantification was performed according to the (CT) method (Applied Biosystems). […] The ΔCT-value was obtained by subtracting the average β-actin CT value from the average CT-value of the synaptic mitochondrial ETC genes and the mitochondrial structural genes. The ΔCT of untreated cells was used as the calibrator. The fold change was calculated according to the formula 2^-(Δ ΔCT), where ΔΔCT is the difference between ΔCT and the ΔCT calibrator value. To determine the statistical significance of mRNA expression, the CT value differences between the untreated cells and other experimental groups of cells were used in relation to β-actin normalization. Statistical significance was calculated, using one-way ANOVA.

N2a cells [2] = assay: H2O2 production (Amplex Red H2O2 assay); format: cell-based, mouse
Experimental: as §1
Mitochondrial functional assays. H2O2 production: Using an Amplex® Red H2O2 assay kit (Molecular Probes, Eugene, Oreg., USA), H2O2 production was measured using cell pellets, as described in Manczak and Reddy. Briefly, H2O2 production was measured in the protein lysates prepared from cell pellets of control untreated N2a cells and 4 treatment groups (FIG. 1). A BCA protein assay kit (Pierce Biotechnology) was used to estimate protein concentration. The reaction mixture contained mitochondrial proteins (μg/μl), Amplex Red reagents (50 μM), horseradish peroxidase (0.1 U/ml), and a reaction buffer (1×). The mixture was incubated at room temperature for 30 minutes, followed by spectrophotometer readings of fluorescence (570 nm). Finally, H2O2 production was determined, using a standard curve equation expressed in nmol/μg mitochondrial protein.

N2a cells [3] = assay: Cell viability (MTT assay); format: cell-based, mouse
Experimental: as §1
The N2a cells from all 5 groups (4 treatment groups and 1 control group) were harvested, and their cell pellets were collected and used for quantitative real-time RT-PCR, immunoblotting analysis of mitochondrial and synaptic proteins, and mitochondrial functional assays for hydrogen peroxide production, lipid peroxidation, cytochrome c oxidase activity, and MTT determination. Isolated mitochondria from N2a cells from all 5 groups were used to determine mitochondrial ATP as described in Reddy et al..

[4] = test system: mouse neuroblastoma (N2a) cells; assay: Quantitative real-time RT-PCR: mRNA expression of mitochondrial dynamics, biogenesis and synaptic genes; format: cell-based; conditions: vs Aβ42 treated cells
GTPase Drp1 = conditions: by blocking the self-assembly of Drp1; reference [34]; cited from earlier work
[5] = Aβ42 6 hrs then Mdivi1 24 hrs (Aβ42+Mdivi1), vs Aβ42 treated cells
[6] = Aβ42 6 hrs then Mdivi1 24 hrs (Aβ42+Mdivi1), vs untreated N2a cells
[7] = Mdivi1 24 hrs or Aβ42 20 μM 6 hrs alone, vs untreated N2a cells
[8] = Mdivi1 24 hrs then Aβ42 6 hrs (Mdivi1+Aβ42), vs Aβ42 treated cells
[9] = Mdivi1 24 hrs then Aβ42 6 hrs (Mdivi1+Aβ42), vs untreated N2a cells
[10] = Aβ42 6 hrs then Mdivi1 24 hrs (Aβ42+Mdivi1)

## COc1cc(-n2c(S)nc3ccccc3c2=O)c(Cl)cc1Cl [Mdivi1, 3-(2,4-Dichloro-5-methoxyphenyl)-2,3-dihydro-2-thioxo-4(1H)-quinazolinone]
[1]; [5]
  Drp1 mRNA expression level, lower by fold: 1.5 fold
  Drp1 mRNA fold change: −1.5* fold
  Fis1 mRNA expression level, lower by fold: 1.7 fold
  Fis1 mRNA fold change: −1.7* fold
  Mfn1 mRNA fold change: 1.6 fold
  Mfn2 mRNA fold change: 1.6 fold
  Nrf1 mRNA fold change: 2.0 fold
  OPA1 mRNA fold change: 1.3 fold
  PGC1α mRNA fold change: 8.1 fold
  Synaptophysin mRNA fold change: 1.5 fold
[1]; [6]
  CypD mRNA level: unchanged
  PGC1α mRNA fold change: 1.4 fold
  PSD95 mRNA fold change: 4.8 fold
  Synaptophysin mRNA fold change: 1.2 fold
  TFAM mRNA fold change: 1.2 fold
[1]; [7]
  Drp1 mRNA fold change: −1.5* fold
  Drp1 mRNA level, fold decrease: 1.5 fold
  Fis1 mRNA fold change: −1.3 fold
  Fis1 mRNA level, fold decrease: 1.3 fold
  Mfn1 mRNA fold change: 1.3 fold
  Mfn2 mRNA fold change: 1.2 fold
  Nrf1 mRNA fold change: 2.2 fold
  Nrf2 mRNA fold change: 1.6 fold
  OPA1 mRNA fold change: 1.2 fold
  PGC1α mRNA fold change: 2.2 fold
  PSD95 mRNA fold change: 5.1 fold
  Synaptophysin mRNA fold change: 1.3 fold
  TFAM mRNA fold change: 1.5 fold
[1]; [8]
  Drp1 mRNA expression level, lower by fold: 1.5 fold
  Drp1 mRNA fold change: −1.5* fold
  Fis1 mRNA expression level, lower by fold: 1.6 fold
  Fis1 mRNA fold change: −1.6* fold
  Mfn2 mRNA fold change: 2.2 fold
  Nrf1 mRNA fold change: 2.7 fold
  Nrf2 mRNA fold change: 2.7 fold
  OPA1 mRNA fold change: 2.3 fold
  PGC1α mRNA fold change: 6.5 fold
  PSD95 mRNA fold change: 3.8 fold
  Synaptophysin mRNA fold change: 2.2 fold
  TFAM mRNA fold change: 3.2 fold
[1]; [9]
  Drp1 mRNA fold change: −1.1 fold
  Fis1 mRNA fold change: −1.2 fold
  Mfn1 mRNA fold change: 2.1 fold
  Mfn2 mRNA fold change: 1.7 fold
  Nrf1 mRNA fold change: 1.3 fold
  Nrf2 mRNA fold change: 1.3 fold
  OPA1 mRNA fold change: 1.9 fold
  PGC1α mRNA fold change: 1.1 fold
  PSD95 mRNA fold change: 1.5 fold
  Synaptophysin mRNA fold change: 1.7 fold
  TFAM mRNA fold change: 1.3 fold
N2a cells [2]; Aβ42 6 hrs then Mdivi1 24 hrs (Aβ42+Mdivi1), vs N2a+Aβ42 cells
  H2O2 levels: significantly lower
N2a cells [2]; [6]
  H2O2 levels: unchanged
N2a cells [2]; Mdivi1 24 hrs then Aβ42 6 hrs (Mdivi1+Aβ42), vs N2a+Aβ42 cells
  H2O2 levels: significantly lower
N2a cells [2]; [9]
  H2O2 levels: unchanged
N2a cells [3]; Aβ42 6 hrs then Mdivi1 24 hrs (Aβ42+Mdivi1), vs N2a+Aβ42
  Cell viability: higher
N2a cells [3]; [7]
  Cell viability: significantly higher
N2a cells [3]; Mdivi1 24 hrs then Aβ42 6 hrs (Mdivi1+Aβ42), vs N2a+Aβ42
  Cell viability: higher
[4]; [10]
  Nrf2 mRNA fold change: 2.0 fold
  PSD95 mRNA fold change: 8.6 fold
  TFAM mRNA fold change: 2.9 fold
[4]; Mdivi1 24 hrs then Aβ42 6 hrs (Mdivi1+Aβ42)
  Mfn1 mRNA fold change: 2.6 fold
GTPase Drp1
  GTPase Drp1 activity: inhibits
